Laboratory results: patent publication US12303517B1, “Oral testosterone therapy” (Lipocine, Inc., priority 2016, dated 2025)

Experiment: Single fixed dose dosing regimen examples for safety and efficacy (serum T Cmax / Cavg criteria), with food
Assay type: in vivo, human
[1] = Regimen 1, QD 500 mg T13, with food with at least 10 g of fat
[2] = Regimen 2, QD 700 mg T13, with food with at least 10 g of fat
[3] = Regimen 3, QD 750 mg T13, with food with at least 10 g of fat
[4] = Regimen 4, QD 800 mg T13, with food with at least 10 g of fat
[5] = Regimen 5, QD 900 mg T13, with food with at least 10 g of fat
[6] = Regimen 6, QD 1000 mg T13, with food with at least 10 g of fat
[7] = Regimen 7, QD 1100 mg T13, with food with at least 10 g of fat
[8] = Regimen 8, QD 1150 mg T13, with food with at least 10 g of fat
[9] = Regimen 9, QD 1250 mg T13, with food with at least 10 g of fat
[10] = Regimen 10, BID-equal dose (AM/PM) 250/250 mg T13, with food with at least 10 g of fat
[11] = Regimen 11, BID-equal dose (AM/PM) 350/350 mg T13, with food with at least 10 g of fat
[12] = Regimen 12, BID-equal dose (AM/PM) 375/375 mg T13, with food with at least 10 g of fat
[13] = Regimen 13, BID-equal dose (AM/PM) 400/400 mg T13, with food with at least 10 g of fat
[14] = Regimen 14, BID-equal dose (AM/PM) 450/450 mg T13, with food with at least 10 g of fat
[15] = Regimen 15, BID-equal dose (AM/PM) 500/500 mg T13, with food with at least 10 g of fat
[16] = Regimen 16, BID-equal dose (AM/PM) 550/550 mg T13, with food with at least 10 g of fat
[17] = Regimen 17, BID-equal dose (AM/PM) 575/575 mg T13, with food with at least 10 g of fat
[18] = Regimen 18, BID-equal dose (AM/PM) 625/625 mg T13, with food with at least 10 g of fat

CCCCCCCCCCCCC(=O)O[C@H]1CC[C@H]2[C@@H]3CCC4=CC(=O)CC[C@]4(C)[C@H]3CC[C@]12C [T13, testosterone tridecanoate]
Cavg > 300 ng/dL ≥75% patients [1]: No
Cavg > 300 ng/dL ≥80% patients [1]: No
Cmax > 1500 ng/dL <15% patients [1]: Yes
Cmax > 1500 ng/dL <20% patients [1]: Yes
Cmax > 1800 ng/dL <5% patients [1]: Yes
Cmax > 1800 ng/dL <10% patients [1]: Yes
Cmax > 2500 ng/dL <2% patients [1]: Yes
Cmax > 2500 ng/dL none of patients [1]: Yes
Cavg > 300 ng/dL ≥75% patients [2]: No
Cavg > 300 ng/dL ≥80% patients [2]: No
Cmax > 1500 ng/dL <15% patients [2]: Yes
Cmax > 1500 ng/dL <20% patients [2]: Yes
Cmax > 1800 ng/dL <5% patients [2]: Yes
Cmax > 1800 ng/dL <10% patients [2]: Yes
Cmax > 2500 ng/dL <2% patients [2]: Yes
Cmax > 2500 ng/dL none of patients [2]: Yes
Cavg > 300 ng/dL ≥75% patients [3]: Yes
Cavg > 300 ng/dL ≥80% patients [3]: No
Cmax > 1500 ng/dL <15% patients [3]: Yes
Cmax > 1500 ng/dL <20% patients [3]: Yes
Cavg > 300 ng/dL ≥75% patients [4]: Yes
Cavg > 300 ng/dL ≥80% patients [4]: Yes
Cavg > 300 ng/dL ≥75% patients [5]: Yes
Cavg > 300 ng/dL ≥80% patients [5]: Yes
Cmax > 1500 ng/dL <15% patients [5]: Yes
Cmax > 1500 ng/dL <20% patients [5]: Yes
Cmax > 1800 ng/dL <5% patients [5]: Yes
Cmax > 1800 ng/dL <10% patients [5]: Yes
Cmax > 2500 ng/dL <2% patients [5]: Yes
Cmax > 2500 ng/dL none of patients [5]: Yes
Cavg > 300 ng/dL ≥75% patients [6]: Yes
Cavg > 300 ng/dL ≥80% patients [6]: Yes
Cmax > 1500 ng/dL <15% patients [6]: Yes
Cmax > 1500 ng/dL <20% patients [6]: Yes
Cmax > 1800 ng/dL <5% patients [6]: Yes
Cmax > 1800 ng/dL <10% patients [6]: Yes
Cmax > 2500 ng/dL <2% patients [6]: Yes
Cmax > 2500 ng/dL none of patients [6]: Yes
Cavg > 300 ng/dL ≥75% patients [7]: Yes
Cavg > 300 ng/dL ≥80% patients [7]: Yes
Cmax > 1500 ng/dL <15% patients [7]: Yes
Cmax > 1500 ng/dL <20% patients [7]: Yes
Cmax > 1800 ng/dL <5% patients [7]: Yes
Cmax > 1800 ng/dL <10% patients [7]: Yes
Cmax > 2500 ng/dL <2% patients [7]: Yes
Cmax > 2500 ng/dL none of patients [7]: Yes
Cavg > 300 ng/dL ≥75% patients [8]: Yes
Cavg > 300 ng/dL ≥80% patients [8]: Yes
Cmax > 1500 ng/dL <15% patients [8]: No
Cmax > 1500 ng/dL <20% patients [8]: Yes
Cmax > 1800 ng/dL <5% patients [8]: Yes
Cmax > 1800 ng/dL <10% patients [8]: Yes
Cmax > 2500 ng/dL <2% patients [8]: Yes
Cmax > 2500 ng/dL none of patients [8]: No
Cavg > 300 ng/dL ≥75% patients [9]: Yes
Cavg > 300 ng/dL ≥80% patients [9]: Yes
Cmax > 1500 ng/dL <15% patients [9]: No
Cmax > 1500 ng/dL <20% patients [9]: No
Cmax > 1800 ng/dL <5% patients [9]: No
Cmax > 1800 ng/dL <10% patients [9]: No
Cmax > 2500 ng/dL <2% patients [9]: No
Cmax > 2500 ng/dL none of patients [9]: No
Cavg > 300 ng/dL ≥75% patients [10]: No
Cavg > 300 ng/dL ≥80% patients [10]: No
Cmax > 1500 ng/dL <15% patients [10]: Yes
Cmax > 1500 ng/dL <20% patients [10]: Yes
Cmax > 1800 ng/dL <5% patients [10]: Yes
Cmax > 1800 ng/dL <10% patients [10]: Yes
Cmax > 2500 ng/dL <2% patients [10]: Yes
Cmax > 2500 ng/dL none of patients [10]: Yes
Cavg > 300 ng/dL ≥75% patients [11]: No
Cavg > 300 ng/dL ≥80% patients [11]: No
Cmax > 1500 ng/dL <15% patients [11]: Yes
Cmax > 1500 ng/dL <20% patients [11]: Yes
Cmax > 1800 ng/dL <5% patients [11]: Yes
Cmax > 1800 ng/dL <10% patients [11]: Yes
Cmax > 2500 ng/dL <2% patients [11]: Yes
Cmax > 2500 ng/dL none of patients [11]: Yes
Cavg > 300 ng/dL ≥75% patients [12]: Yes
Cavg > 300 ng/dL ≥80% patients [12]: No
Cmax > 1500 ng/dL <15% patients [12]: Yes
Cmax > 1500 ng/dL <20% patients [12]: Yes
Cmax > 1800 ng/dL <5% patients [12]: Yes
Cmax > 1800 ng/dL <10% patients [12]: Yes
Cmax > 2500 ng/dL <2% patients [12]: Yes
Cmax > 2500 ng/dL none of patients [12]: Yes
Cavg > 300 ng/dL ≥75% patients [13]: Yes
Cavg > 300 ng/dL ≥80% patients [13]: Yes
Cmax > 1500 ng/dL <15% patients [13]: Yes
Cmax > 1500 ng/dL <20% patients [13]: Yes
Cmax > 1800 ng/dL <5% patients [13]: Yes
Cmax > 1800 ng/dL <10% patients [13]: Yes
Cmax > 2500 ng/dL <2% patients [13]: Yes
Cmax > 2500 ng/dL none of patients [13]: Yes
Cavg > 300 ng/dL ≥75% patients [14]: Yes
Cavg > 300 ng/dL ≥80% patients [14]: Yes
Cmax > 1500 ng/dL <15% patients [14]: Yes
Cmax > 1500 ng/dL <20% patients [14]: Yes
Cmax > 1800 ng/dL <5% patients [14]: Yes
Cmax > 1800 ng/dL <10% patients [14]: Yes
Cmax > 2500 ng/dL <2% patients [14]: Yes
Cmax > 2500 ng/dL none of patients [14]: Yes
Cavg > 300 ng/dL ≥75% patients [15]: Yes
Cavg > 300 ng/dL ≥80% patients [15]: Yes
Cmax > 1500 ng/dL <15% patients [15]: Yes
Cmax > 1500 ng/dL <20% patients [15]: Yes
Cmax > 1800 ng/dL <5% patients [15]: Yes
Cmax > 1800 ng/dL <10% patients [15]: Yes
Cmax > 2500 ng/dL <2% patients [15]: Yes
Cmax > 2500 ng/dL none of patients [15]: Yes
Cavg > 300 ng/dL ≥75% patients [16]: Yes
Cavg > 300 ng/dL ≥80% patients [16]: Yes
Cmax > 1500 ng/dL <15% patients [16]: Yes
Cmax > 1500 ng/dL <20% patients [16]: Yes
Cmax > 1800 ng/dL <5% patients [16]: Yes
Cmax > 1800 ng/dL <10% patients [16]: Yes
Cmax > 2500 ng/dL <2% patients [16]: Yes
Cmax > 2500 ng/dL none of patients [16]: Yes
Cavg > 300 ng/dL ≥75% patients [17]: Yes
Cavg > 300 ng/dL ≥80% patients [17]: Yes
Cmax > 1500 ng/dL <15% patients [17]: Yes
Cmax > 1500 ng/dL <20% patients [17]: Yes
Cmax > 1800 ng/dL <5% patients [17]: Yes
Cmax > 1800 ng/dL <10% patients [17]: Yes
Cmax > 2500 ng/dL <2% patients [17]: Yes
Cmax > 2500 ng/dL none of patients [17]: Yes
Cavg > 300 ng/dL ≥75% patients [18]: Yes
Cavg > 300 ng/dL ≥80% patients [18]: Yes
Cmax > 1500 ng/dL <15% patients [18]: Yes
Cmax > 1500 ng/dL <20% patients [18]: Yes
Cmax > 1800 ng/dL <5% patients [18]: Yes
Cmax > 1800 ng/dL <10% patients [18]: Yes
Cmax > 2500 ng/dL <2% patients [18]: Yes
Cmax > 2500 ng/dL none of patients [18]: Yes
